# Source: the supplement of paper PMC10307832
# What was measured:
# Assay in all cases: relative viability (nuclei count vs DMSO), 5 days (fraction); higher = more cells survive
# LOU-NH91 = tested on: LOU-NH91
# In short: (§1)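 Lung cancer cell lines in 1536-well plates were dosed by pin tool the day after seeding, either with one drug alone or with a fixed anchor-drug dose plus five library-drug doses (not always all listed) in √10 steps. After 5 days, cells were fixed and their nuclei stained in one step (final 0.05% Triton X-100, 1% formaldehyde, 1 ug/ml Hoechst), then counted on 4× images. Relative viability is the nuclei count in treated wells divided by that in vehicle wells. Values are medians of duplicate plates.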
# SK-MES-1 = tested on: SK-MES-1
# In short: as §1
# NCI-H596 = tested on: NCI-H596
# In short: as §1
# NCI-H2170 = tested on: NCI-H2170
# In short: as §1
# NCI-H441 = tested on: NCI-H441
# In short: as §1
# COR-L 105 = tested on: COR-L 105
# In short: as §1
# NCI-H1975 = tested on: NCI-H1975
# In short: as §1
# NCI-H1734 = tested on: NCI-H1734
# In short: as §1
# SW 900 = tested on: SW 900
# In short: as §1
# H3255 = tested on: H3255
# In short: as §1
# NCI-H520 = tested on: NCI-H520
# In short: as §1
# LK-2 = tested on: LK-2
# In short: as §1
# A-427 = tested on: A-427
# In short: as §1
# EKVX = tested on: EKVX
# In short: as §1
# PC-3 [JPC-3] = tested on: PC-3 [JPC-3]
# In short: as §1
# NCI-H1755 = tested on: NCI-H1755
# In short: as §1
# NCI-H23 = tested on: NCI-H23
# In short: as §1
# ChaGo-K-1 = tested on: ChaGo-K-1
# In short: as §1
# EMC-BAC-2 = tested on: EMC-BAC-2
# In short: as §1
# HCC-366 = tested on: HCC-366
# In short: as §1
# NCI-H1666 = tested on: NCI-H1666
# In short: as §1
# NCI-H1563 = tested on: NCI-H1563
# In short: as §1
compound,measurement,setting,value
Nc1ccn([C@@H]2O[C@H](CO)[C@@H](O)[C@@H]2O)c(=O)n1 [Cytarabine] + N=C(N)NC(=N)NCCc1ccccc1 [Phenformin] (partner 250 µM),relative viability,LOU-NH91; first compound 0.005 µM,0.732
same,relative viability,LOU-NH91; first compound 0.01581 µM,0.75
same,relative viability,LOU-NH91; first compound 0.05 µM,0.467
same,relative viability,LOU-NH91; first compound 0.1581 µM,0.413
same,relative viability,LOU-NH91; first compound 0.5 µM,0.508
same,relative viability,SK-MES-1; first compound 0.005 µM,0.44
same,relative viability,SK-MES-1; first compound 0.01581 µM,0.389
same,relative viability,SK-MES-1; first compound 0.05 µM,0.212
same,relative viability,SK-MES-1; first compound 0.1581 µM,0.206
same,relative viability,SK-MES-1; first compound 0.5 µM,0.178
same,relative viability,NCI-H596; first compound 0.005 µM,0.801
same,relative viability,NCI-H596; first compound 0.01581 µM,0.613
same,relative viability,NCI-H596; first compound 0.05 µM,0.694
same,relative viability,NCI-H596; first compound 0.1581 µM,0.624
same,relative viability,NCI-H596; first compound 0.5 µM,0.447
same,relative viability,NCI-H2170; first compound 0.005 µM,0.328
same,relative viability,NCI-H2170; first compound 0.01581 µM,0.321
same,relative viability,NCI-H2170; first compound 0.05 µM,0.25
same,relative viability,NCI-H2170; first compound 0.1581 µM,0.218
same,relative viability,NCI-H2170; first compound 0.5 µM,0.205
same,relative viability,NCI-H441; first compound 0.005 µM,0.79
same,relative viability,NCI-H441; first compound 0.01581 µM,0.655
same,relative viability,NCI-H441; first compound 0.05 µM,0.783
same,relative viability,NCI-H441; first compound 0.1581 µM,0.399
same,relative viability,NCI-H441; first compound 0.5 µM,0.298
same,relative viability,COR-L 105; first compound 0.005 µM,0.428
same,relative viability,COR-L 105; first compound 0.01581 µM,0.504
same,relative viability,COR-L 105; first compound 0.05 µM,0.43
same,relative viability,COR-L 105; first compound 0.1581 µM,0.29
same,relative viability,COR-L 105; first compound 0.5 µM,0.259
same,relative viability,NCI-H1975; first compound 0.005 µM,0.331
same,relative viability,NCI-H1975; first compound 0.01581 µM,0.344
same,relative viability,NCI-H1975; first compound 0.05 µM,0.31
same,relative viability,NCI-H1975; first compound 0.1581 µM,0.193
same,relative viability,NCI-H1975; first compound 0.5 µM,0.177
same,relative viability,NCI-H1734; first compound 0.005 µM,0.322
same,relative viability,NCI-H1734; first compound 0.01581 µM,0.219
same,relative viability,NCI-H1734; first compound 0.05 µM,0.191
same,relative viability,NCI-H1734; first compound 0.1581 µM,0.155
same,relative viability,NCI-H1734; first compound 0.5 µM,0.155
same,relative viability,SW 900; first compound 0.005 µM,0.472
same,relative viability,SW 900; first compound 0.01581 µM,0.395
same,relative viability,SW 900; first compound 0.05 µM,0.367
same,relative viability,SW 900; first compound 0.1581 µM,0.18
same,relative viability,SW 900; first compound 0.5 µM,0.155
same,relative viability,H3255; first compound 0.005 µM,0.301
same,relative viability,H3255; first compound 0.01581 µM,0.336
same,relative viability,H3255; first compound 0.05 µM,0.296
same,relative viability,H3255; first compound 0.1581 µM,0.25
same,relative viability,H3255; first compound 0.5 µM,0.273
same,relative viability,NCI-H520; first compound 0.005 µM,0.558
same,relative viability,NCI-H520; first compound 0.01581 µM,0.314
same,relative viability,NCI-H520; first compound 0.05 µM,0.658
same,relative viability,NCI-H520; first compound 0.1581 µM,0.383
same,relative viability,NCI-H520; first compound 0.5 µM,0.323
same,relative viability,LK-2; first compound 0.005 µM,0.357
same,relative viability,LK-2; first compound 0.01581 µM,0.247
same,relative viability,LK-2; first compound 0.05 µM,0.288
same,relative viability,LK-2; first compound 0.1581 µM,0.149
same,relative viability,LK-2; first compound 0.5 µM,0.196
same,relative viability,A-427; first compound 0.005 µM,0.255
same,relative viability,A-427; first compound 0.01581 µM,0.188
same,relative viability,A-427; first compound 0.05 µM,0.207
same,relative viability,A-427; first compound 0.5 µM,0.153
same,relative viability,EKVX; first compound 0.005 µM,0.217
same,relative viability,EKVX; first compound 0.01581 µM,0.192
same,relative viability,EKVX; first compound 0.05 µM,0.172
same,relative viability,EKVX; first compound 0.1581 µM,0.211
same,relative viability,EKVX; first compound 0.5 µM,0.207
same,relative viability,PC-3 [JPC-3]; first compound 0.005 µM,0.493
same,relative viability,PC-3 [JPC-3]; first compound 0.01581 µM,0.468
same,relative viability,PC-3 [JPC-3]; first compound 0.05 µM,0.418
same,relative viability,PC-3 [JPC-3]; first compound 0.1581 µM,0.346
same,relative viability,PC-3 [JPC-3]; first compound 0.5 µM,0.358
same,relative viability,NCI-H1755; first compound 0.005 µM,0.621
same,relative viability,NCI-H1755; first compound 0.01581 µM,0.413
same,relative viability,NCI-H1755; first compound 0.05 µM,0.466
same,relative viability,NCI-H1755; first compound 0.1581 µM,0.274
same,relative viability,NCI-H1755; first compound 0.5 µM,0.236
same,relative viability,NCI-H23; first compound 0.005 µM,0.784
same,relative viability,NCI-H23; first compound 0.01581 µM,0.649
same,relative viability,NCI-H23; first compound 0.05 µM,0.721
same,relative viability,NCI-H23; first compound 0.1581 µM,0.367
same,relative viability,NCI-H23; first compound 0.5 µM,0.156
same,relative viability,ChaGo-K-1; first compound 0.005 µM,0.421
same,relative viability,ChaGo-K-1; first compound 0.01581 µM,0.342
same,relative viability,ChaGo-K-1; first compound 0.05 µM,0.323
same,relative viability,ChaGo-K-1; first compound 0.1581 µM,0.176
same,relative viability,ChaGo-K-1; first compound 0.5 µM,0.181
same,relative viability,EMC-BAC-2; first compound 0.005 µM,0.418
same,relative viability,EMC-BAC-2; first compound 0.01581 µM,0.482
same,relative viability,EMC-BAC-2; first compound 0.05 µM,0.398
same,relative viability,EMC-BAC-2; first compound 0.1581 µM,0.268
same,relative viability,EMC-BAC-2; first compound 0.5 µM,0.196
same,relative viability,HCC-366; first compound 0.005 µM,0.617
same,relative viability,HCC-366; first compound 0.01581 µM,0.586
same,relative viability,HCC-366; first compound 0.05 µM,0.528
same,relative viability,HCC-366; first compound 0.1581 µM,0.2
same,relative viability,HCC-366; first compound 0.5 µM,0.0951
same,relative viability,NCI-H1666; first compound 0.005 µM,0.545
same,relative viability,NCI-H1666; first compound 0.01581 µM,0.669
same,relative viability,NCI-H1666; first compound 0.05 µM,0.466
same,relative viability,NCI-H1666; first compound 0.1581 µM,0.401
same,relative viability,NCI-H1666; first compound 0.5 µM,0.396
same,relative viability,NCI-H1563; first compound 0.005 µM,0.548
same,relative viability,NCI-H1563; first compound 0.01581 µM,0.642
same,relative viability,NCI-H1563; first compound 0.05 µM,0.706
same,relative viability,NCI-H1563; first compound 0.1581 µM,0.56
same,relative viability,NCI-H1563; first compound 0.5 µM,0.567
